Results reported in patent US6525001B1, “Substituted pyrimidine and pyridine herbicides” (Mid-American Commercialization Corporation, priority 1997, dated 2003).

What was measured:
Type in all cases: in vivo
Set-up in all cases: key: 0 is no effect; 10 is complete control
[1] = tested on: barnyardgrass (Echinochloa crus-galli); experiment: Test A pre-/postemergence; settings: 0 to 10 scale
Method: (§1) Seeds of barnyardgrass (Echinochloa crus-galli), crabgrass (Digitaria spp.), morningglory (Ipomoea spp.), and velvetleaf (Abutilon theophrasti) were planted into a sandy loam soil and treated preemergence by soil drench with test chemicals formulated in a non-phytotoxic solvent mixture which includes a surfactant. At the same time, these crop and weed species were also treated postemergence sprayed to runoff, with test chemicals formulated in the same manner. Plants ranged in height from two to eighteen cm and were in the one to two leaf stage for the postemergence treatment. Treated plants and untreated controls were maintained in a greenhouse for approximately eleven days, after which all treated plants were compared to untreated controls and visually evaluated for injury. Plant response ratings, summarized in Table A, are based on a 0 to 10 scale where 0 is no effect and 10 is complete control. A dash (−) response means no test results.

[2] = tested on: crabgrass (Digitaria spp.); experiment: Test A pre-/postemergence; settings: 0 to 10 scale
Method: as §1

[3] = tested on: morningglory (Ipomoea spp.); experiment: Test A pre-/postemergence; settings: 0 to 10 scale
Method: as §1

[4] = tested on: velvetleaf (Abutilon theophrasti); experiment: Test A pre-/postemergence; settings: 0 to 10 scale
Method: as §1

[5] = tested on: bedstraw (Galium aparine); experiment: Test B pre-/postemergence
In short: (§2)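 Seeds were planted and sprayed preemergence, while plants at 2 to 18 cm (1- to 4-leaf stage) were sprayed postemergence at the same time, with test chemical in a non-phytotoxic solvent mixture containing surfactant. After twelve to sixteen days in a greenhouse, injury was rated visually against untreated controls on a 0–10 scale.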

[6] = tested on: broadleaf signalgrass (Brachiaria decumbens); experiment: Test B pre-/postemergence
In short: as §2

[7] = tested on: giant foxtail (Setaria faberii); experiment: Test B pre-/postemergence
In short: as §2

[8] = tested on: momingglory (Ipomoea hederacea); experiment: Test B pre-/postemergence
In short: as §2

wild oat (Avena fatua) = experiment: Test B pre-/postemergence
In short: as §2

[9] = PRE SOIL DRENCH, Rate 2000 g/ha
[10] = postemergence SPRAYED TO RUNOFF, Rate 1000 g/ha
[11] = Preemergence, Rate 62 g/ha, scale of 0 to 10

Cc1cnc(-n2ccc(C(F)(F)F)n2)nc1C(=O)c1ccc(C(F)(F)F)cc1 [Compound 65]
Plant response rating, Barnyardgrass [1, 9]: 5
Plant response rating, Barnyardgrass [1, 10]: 4
Plant response rating, Crabgrass [2, 9]: 8
Plant response rating, Crabgrass [2, 10]: 5
Plant response rating, Morningglory [3, 9]: 4
Plant response rating, Morningglory [3, 10]: 10
Plant response rating, Velvetleaf [4, 9]: 4
Plant response rating, Velvetleaf [4, 10]: 5
Plant response rating, Bedstraw [5, 11]: 0
Bedstraw plant response rating ([5]; Rate 62 g/ha, Postemergence): 0
Bedstraw plant response rating ([5]; Rate 125 g/ha, Postemergence): 3
Plant response rating, Bedstraw ([5]; Rate 125 g/ha, Preemergence): 0
Plant response rating, Bedstraw ([5]; Rate 250 g/ha, Postemergence): 7
Plant response rating, Bedstraw ([5]; Rate 250 g/ha, Preemergence): 0
Plant response rating, Bedstraw ([5]; Rate 500 g/ha, Postemergence): 7
Plant response rating, Bedstraw ([5]; Rate 500 g/ha, Preemergence): 0
B. signalgrass plant response rating ([6]; Rate 62 g/ha, Postemergence): 1
B. signalgrass plant response rating ([6]; Rate 62 g/ha, Preemergence): 0
B. signalgrass plant response rating ([6]; Rate 125 g/ha, Postemergence): 1
Plant response rating, B. signalgrass ([6]; Rate 125 g/ha, Preemergence): 0
Plant response rating, B. signalgrass ([6]; Rate 250 g/ha, Postemergence): 1
Plant response rating, B. signalgrass ([6]; Rate 250 g/ha, Preemergence): 1
Plant response rating, B. signalgrass ([6]; Rate 500 g/ha, Postemergence): 1
Plant response rating, B. signalgrass ([6]; Rate 500 g/ha, Preemergence): 2
Plant response rating, Giant foxtail [7, 11]: 0
Giant foxtail plant response rating ([7]; Rate 62 g/ha, Postemergence): 1
Giant foxtail plant response rating ([7]; Rate 125 g/ha, Postemergence): 1
Plant response rating, Giant foxtail ([7]; Rate 125 g/ha, Preemergence): 0
Plant response rating, Giant foxtail ([7]; Rate 250 g/ha, Postemergence): 1
Plant response rating, Giant foxtail ([7]; Rate 250 g/ha, Preemergence): 0
Plant response rating, Giant foxtail ([7]; Rate 500 g/ha, Postemergence): 1
Plant response rating, Giant foxtail ([7]; Rate 500 g/ha, Preemergence): 0
Plant response rating, Morningglory [8, 11]: 0
Morningglory plant response rating ([8]; Rate 125 g/ha, Postemergence): 1
Plant response rating, Morningglory ([8]; Rate 125 g/ha, Preemergence): 0
Plant response rating, Morningglory ([8]; Rate 250 g/ha, Postemergence): 8
Plant response rating, Morningglory ([8]; Rate 250 g/ha, Preemergence): 0
Plant response rating, Morningglory ([8]; Rate 500 g/ha, Postemergence): 10
Plant response rating, Morningglory ([8]; Rate 500 g/ha, Preemergence): 5
Plant response rating, Wild oats (wild oat (Avena fatua); [11]): 0
Wild oats plant response rating (wild oat (Avena fatua); Rate 62 g/ha, Postemergence): 1
Wild oats plant response rating (wild oat (Avena fatua); Rate 125 g/ha, Postemergence): 1
Plant response rating, Wild oats (wild oat (Avena fatua); Rate 125 g/ha, Preemergence): 0
Plant response rating, Wild oats (wild oat (Avena fatua); Rate 250 g/ha, Postemergence): 1
Plant response rating, Wild oats (wild oat (Avena fatua); Rate 250 g/ha, Preemergence): 0
Plant response rating, Wild oats (wild oat (Avena fatua); Rate 500 g/ha, Postemergence): 1
Plant response rating, Wild oats (wild oat (Avena fatua); Rate 500 g/ha, Preemergence): 0

Cc1cnc(-c2ccc(C(F)(F)F)cc2)nc1C(=O)c1cccc(C(F)(F)F)c1 [Compound 73]
Plant response rating, Barnyardgrass [1, 9]: 9
Plant response rating, Barnyardgrass [1, 10]: 8
Plant response rating, Crabgrass [2, 9]: 10
Plant response rating, Crabgrass [2, 10]: 9
Plant response rating, Morningglory [3, 9]: 9
Plant response rating, Morningglory [3, 10]: 9
Plant response rating, Velvetleaf [4, 9]: 9
Plant response rating, Velvetleaf [4, 10]: 9
Plant response rating, Bedstraw [5, 11]: 2
Bedstraw plant response rating ([5]; Rate 62 g/ha, Postemergence): 9
Bedstraw plant response rating ([5]; Rate 125 g/ha, Postemergence): 9
Plant response rating, Bedstraw ([5]; Rate 125 g/ha, Preemergence): 8
Plant response rating, Bedstraw ([5]; Rate 250 g/ha, Postemergence): 9
Plant response rating, Bedstraw ([5]; Rate 250 g/ha, Preemergence): 9
Plant response rating, Bedstraw ([5]; Rate 500 g/ha, Postemergence): 9
Plant response rating, Bedstraw ([5]; Rate 500 g/ha, Preemergence): 10
B. signalgrass plant response rating ([6]; Rate 62 g/ha, Postemergence): 8
B. signalgrass plant response rating ([6]; Rate 62 g/ha, Preemergence): 9
B. signalgrass plant response rating ([6]; Rate 125 g/ha, Postemergence): 9
Plant response rating, B. signalgrass ([6]; Rate 125 g/ha, Preemergence): 9
Plant response rating, B. signalgrass ([6]; Rate 250 g/ha, Postemergence): 9
Plant response rating, B. signalgrass ([6]; Rate 250 g/ha, Preemergence): 9
Plant response rating, B. signalgrass ([6]; Rate 500 g/ha, Postemergence): 8
Plant response rating, B. signalgrass ([6]; Rate 500 g/ha, Preemergence): 10
Plant response rating, Giant foxtail [7, 11]: 10
Giant foxtail plant response rating ([7]; Rate 62 g/ha, Postemergence): 6
Giant foxtail plant response rating ([7]; Rate 125 g/ha, Postemergence): 8
Plant response rating, Giant foxtail ([7]; Rate 125 g/ha, Preemergence): 10
Plant response rating, Giant foxtail ([7]; Rate 250 g/ha, Postemergence): 9
Plant response rating, Giant foxtail ([7]; Rate 250 g/ha, Preemergence): 10
Plant response rating, Giant foxtail ([7]; Rate 500 g/ha, Postemergence): 9
Plant response rating, Giant foxtail ([7]; Rate 500 g/ha, Preemergence): 10
Plant response rating, Morningglory [8, 11]: 3
Morningglory plant response rating ([8]; Rate 62 g/ha, Postemergence): 9
Morningglory plant response rating ([8]; Rate 125 g/ha, Postemergence): 9
Plant response rating, Morningglory ([8]; Rate 125 g/ha, Preemergence): 9
Plant response rating, Morningglory ([8]; Rate 250 g/ha, Postemergence): 9
Plant response rating, Morningglory ([8]; Rate 250 g/ha, Preemergence): 9
Plant response rating, Morningglory ([8]; Rate 500 g/ha, Postemergence): 10
Plant response rating, Morningglory ([8]; Rate 500 g/ha, Preemergence): 10
Plant response rating, Wild oats (wild oat (Avena fatua); [11]): 7
Wild oats plant response rating (wild oat (Avena fatua); Rate 62 g/ha, Postemergence): 6
Wild oats plant response rating (wild oat (Avena fatua); Rate 125 g/ha, Postemergence): 7
Plant response rating, Wild oats (wild oat (Avena fatua); Rate 125 g/ha, Preemergence): 9
Plant response rating, Wild oats (wild oat (Avena fatua); Rate 250 g/ha, Postemergence): 9
Plant response rating, Wild oats (wild oat (Avena fatua); Rate 250 g/ha, Preemergence): 10
Plant response rating, Wild oats (wild oat (Avena fatua); Rate 500 g/ha, Postemergence): 9
Plant response rating, Wild oats (wild oat (Avena fatua); Rate 500 g/ha, Preemergence): 10
